Assay results from patent US6124456A, “Pyrazolopyridine compound and pharmaceutical use thereof” (Fujisawa Pharmaceutical Co., Ltd., priority 1996, dated 2000).

System: human A1 receptor
Test: Adenosine antagonistic activity: radioligand binding with 3H-DPCPX
Conditions: at the dose of 1.0×10^-7 M; radioligand 3H-DPCPX 2×10^-9 M
Excerpt: Test: Adenosine Antagonistic Activity
The adenosine antagonistic activity of the test compound was examined by radioligand binding techniques using 8-cyclopentyl-1,3-dipropylxanthine, dipropyl-2,3-^3 H(N)] (^3 H-DPCPX, 2×10^-9 M) for human A^1 receptor.

inhibition (%): more than 90%
Structure (SMILES): CN1CCC(n2nc(-c3c(-c4ccccc4)nn4ccccc34)ccc2=O)CC1 [Example 2, 3-[2-(1-methylpiperidin-4-yl)-3-oxo-2,3-dihydropyridazin-6-yl]-2-phenylpyrazolo[1,5-a]pyridine]
